Each structure is given as a SMILES string. Counter-ions that a name gives are not always drawn.

The test system of the first experiment is T1, 1N4R p-tau.
T1 construct: made in house; host or cells: E. coli (PIMAX system)
The experiment in a line: p-tau aggregation modulator screen of 1280-compound library (ThS fluorescence net change over 16 h).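 For ThS net change: 30 µM compound with 6 µM p-tau over 16 h.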 In kind it is biochemical.
Conditions: not given
Details: key to PTAI>2SD: *: PTAI>2SD.
`CCCCN(CCCC)CCC(O)c1cc2c(Cl)cc(Cl)cc2c2cc(C(F)(F)F)ccc12` (stereo not drawn) [Halofantrine hydrochloride]: the ThS net change is 555. `COc1ccc([C@@H]2CC(=O)c3c(O)cc(O[C@@H]4O[C@H](CO[C@@H]5O[C@@H](C)[C@H](O)[C@@H](O)[C@H]5O)[C@@H](O)[C@H](O)[C@H]4O)cc3O2)cc1O` [Hesperidin] yielded a ThS net change of 425.

In turn, `COc1ccc(CCN)cc1OC.Cl` [Homoveratrylamine] registered a ThS net change of 439. The same measure, in the same setting: as for `CN1[C@@H]2CC[C@H]1C[C@@H](OC(=O)[C@H](CO)c1ccccc1)C2` [Hyoscyamine (L)], the figure is 434. In turn, `O=C(NCNC(=O)NC1C(=O)NC(=O)N1CO)NC1C(=O)NC(=O)N1CO` (stereo not drawn) [Imidurea] returned a ThS net change of 463. The same measure, in the same setting: as for `CN(C)CCCN1c2ccccc2CCc2ccccc21` [Imipramine hydrochloride], the figure is 287. The same measure, in the same setting: as for `CC(C)(C)NC(=O)[C@@H]1CN(Cc2cccnc2)CCN1C[C@@H](O)C[C@@H](Cc1ccccc1)C(=O)N[C@H]1c2ccccc2C[C@H]1O` [Indinavir sulfate], the figure is 457. The same measure, in the same setting: as for `CCc1c2c(nc3ccc(OC(=O)N4CCC(N5CCCCC5)CC4)cc13)-c1cc3c(c(=O)n1C2)COC(=O)[C@]3(O)CC.Cl.O.O.O` [Irinotecan hydrochloride trihydrate], the figure is 281.

The same experiment, now with this note: 1280-compound library screen; ThS fluorescence net change over 16 h.
Consider `N=C(N)N/N=C/c1c(Cl)cccc1Cl` [Guanabenz acetate], for which the ThS net change turned out to be 405. Consider `CC1(C)O[C@@H]2C[C@H]3[C@@H]4CCC5=CC(=O)CC[C@]5(C)[C@@]4(F)[C@@H](O)C[C@]3(C)[C@]2(C(=O)CCl)O1` [Halcinonide], for which the ThS net change came out at 384. Still for that read-out and setting: with `CC(CNC1CCCCC1)OC(=O)c1ccccc1` (stereo not drawn) [Hexylcaine hydrochloride] the figure was 393. With `NS(=O)(=O)c1cc2c(cc1Cl)NCNS2(=O)=O` [Hydrochlorothiazide], the ThS net change stood at 384. With `C[C@]12CCC(=O)C=C1CC[C@@H]1[C@@H]2[C@@H](O)C[C@@]2(C)[C@H]1CC[C@]2(O)C(=O)CO` [Hydrocortisone base], the ThS net change is on record as 398.

For `CCN(CCO)CCCC(C)Nc1ccnc2cc(Cl)ccc12` (stereo not drawn) [Hydroxychloroquine sulfate], the ThS net change is 380. `c1ccc2c(c1)OCC(C1=NCCN1)O2` (stereo not drawn) [Idazoxan hydrochloride] showed a ThS net change of 386. As for `Cc1ccc(NC(=O)c2ccc(CN3CCN(C)CC3)cc2)cc1Nc1nccc(-c2cccnc2)n1` [Imatinib], the ThS net change was found to be 409. The same measure, in the same setting: as for `C[C@@H](O)[C@H]1C(=O)N2C(C(=O)O)=C(SCCN=CN)C[C@H]12` [Imipenem], the figure is 385; as for `COc1ccc2c(c1)c(CC(=O)O)c(C)n2C(=O)c1ccc(Cl)cc1` [Indomethacin], 386.

`N=C(N)NCc1cccc(I)c1.O=S(=O)(O)O` [Iobenguane sulfate] displayed a ThS net change of 411.

`O=C(NCC(O)CO)c1c(I)c(C(=O)NCC(O)CO)c(I)c(N(CCO)C(=O)CO)c1I` (stereo not drawn) [Ioversol] yielded a ThS net change of 409. On the same count and under the same terms, as for `CC(C)NNC(=O)c1ccncc1.O=P(O)(O)O` [Iproniazide phosphate], the figure is 401; as for `Cc1cc(C(=O)NNCc2ccccc2)no1` [Isocarboxazid], 400. On the same count and under the same terms, as for `CC(=O)OCC(=O)[C@@]1(O)CC[C@H]2[C@@H]3CCC4=CC(=O)C=C[C@]4(C)[C@@]3(F)[C@@H](O)C[C@@]21C` [Isoflupredone acetate], the figure is 388; as for `NNC(=O)c1ccncc1` [Isoniazid], 404; as for `CC(C)[N+](C)(CCC(C(N)=O)(c1ccccc1)c1ccccc1)C(C)C` [Isopropamide iodide], 395.

The same experiment, now with this note: 1280-compound library screen; […].
On to `C[N+]1(C)CCOC(O)(c2ccc(-c3ccc(C4(O)C[N+](C)(C)CCO4)cc3)cc2)C1.[Br-].[Br-]` (stereo not drawn) [Hemicholinium bromide], for which the ThS net change came out at 379.

`CCCCCN(C)CCC(O)(P(=O)([O-])O)P(=O)(O)O.[Na+]` [Ibandronate sodium] yielded a ThS net change of 394. Same read-out and setting: as for `CN[C@@H]1C[C@@H](c2ccc(Cl)c(Cl)c2)c2ccccc21` [Indatraline hydrochloride], the figure is 388.

The experiment is the same for the next values; noted with them: flag: p-tau aggregation inhibitor, ThS net change more than 2 SD from mean.
As to `CCN(CC)CCNc1ccc(CO)c2sc3ccccc3c(=O)c12` [Hycanthone], the “PTAI>2SD” value is given as “*”.

The same experiment, now with this note: library screen, ThS fluorescence net change over 16 h with p-tau.
Molecule `O=C(CCCN1CCC(O)(c2ccc(Cl)cc2)CC1)c1ccc(F)cc1` [Haloperidol] showed a ThS net change of 319. The molecule `CC1CC(OC(=O)c2ccccc2O)CC(C)(C)C1` (stereo not drawn) [Homosalate] had a ThS net change of 279. The molecule `CCN(CC)CCNc1ccc(CO)c2sc3ccccc3c(=O)c12` [Hycanthone] yielded a ThS net change of 171.

Regarding `OCCOCCN1CCN(C(c2ccccc2)c2ccc(Cl)cc2)CC1` (stereo not drawn) [Hydroxyzine dihydrochloride], the ThS net change is listed as 309.

On to `Nc1nc(N)nc(-c2cc(Cl)ccc2Cl)n1` [Irsogladine maleate], for which the ThS net change came out at 308. Same read-out and setting: with `Clc1ccc(C(Cn2ccnc2)OCc2c(Cl)cccc2Cl)c(Cl)c1` (stereo not drawn) [Isoconazole] the figure was 296; with `CCC(NC(C)C)C(O)c1ccc(O)c(O)c1.CS(=O)(=O)O` (stereo not drawn) [Isoetharine mesylate salt], 313.

The experiment is the same for the next values; noted with them: p-tau aggregation modulator screen of 1280-compound library; ThS fluorescence net change.
For `COc1ccccc1OCC(O)CO` (stereo not drawn) [Guaifenesin], the ThS net change amounted to 376. The same measure, in the same setting: with `N=C(N)NCC1COC2(CCCCC2)O1.N=C(N)NCC1COC2(CCCCC2)O1.O=S(=O)(O)O` (stereo not drawn) [Guanadrel sulfate] the figure was 373; with `Clc1cc(Cl)c(OCC#CI)cc1Cl` [Haloprogin], 374; with `CC(N)CCCC(C)(C)O` (stereo not drawn) [Heptaminol hydrochloride], 362. The same measure, in the same setting: as for `CCCCC(CC)CN1CN(CC(CC)CCCC)CC(C)(N)C1` (stereo not drawn) [Hexetidine], the figure is 353. Same read-out and setting: with `Cc1cc(=O)oc2cc(O)ccc12` [Hymecromone] the figure was 357. `CCCCCCCN(CC)CCCC(O)c1ccc(NS(C)(=O)=O)cc1.CCCCCCCN(CC)CCCC(O)c1ccc(NS(C)(=O)=O)cc1.O=C(O)/C=C/C(=O)O` (stereo not drawn) [Ibutilide fumarate]: the ThS net change came to 330. Same read-out and setting: as for `O=c1[nH]c(=O)n([C@H]2C[C@H](O)[C@@H](CO)O2)cc1I` [Idoxuridine], the figure is 359.

For `CC(C(O)c1ccc(O)cc1)N1CCC(Cc2ccccc2)CC1.O=C(O)C(O)C(O)C(=O)O` (stereo not drawn) [Ifenprodil tartrate], the ThS net change amounted to 361.

`CC1Cc2ccccc2N1NC(=O)c1ccc(Cl)c(S(N)(=O)=O)c1` (stereo not drawn) [Indapamide] displayed a ThS net change of 347. The same measure, in the same setting: as for `CC(C(=O)O)c1ccc(N2Cc3ccccc3C2=O)cc1` (stereo not drawn) [Indoprofen], the figure is 364; as for `CC(=O)N(CC(C)C(=O)O)c1c(I)cc(I)c(N)c1I` (stereo not drawn) [Iocetamic acid], 365; as for `CC(=O)N(CC(O)CO)c1c(I)c(C(=O)NCC(O)CO)c(I)c(C(=O)NCC(O)CO)c1I` (stereo not drawn) [Iohexol], 345. The same measure, in the same setting: as for `C[C@H](O)C(=O)Nc1c(I)c(C(=O)NC(CO)CO)c(I)c(C(=O)NC(CO)CO)c1I` [Iopamidol], the figure is 369. On to `COCC(=O)Nc1c(I)c(C(=O)NCC(O)CO)c(I)c(C(=O)N(C)CC(O)CO)c1I` (stereo not drawn) [Iopromide], for which the ThS net change was found to be 359. The same measure, in the same setting: as for `O=C1c2ccccc2S(=O)(=O)N1CCCCN1CCN(c2ncccn2)CC1` [Ipsapirone], the figure is 374.

Staying with this experiment, now noted: p-tau aggregation modulator screen of 1280-compound library; […].
For `C[N+](C)(C)CCCCCC[N+](C)(C)C.O.O.[Br-].[Br-]` [Hexamethonium dibromide dihydrate], the ThS net change is listed as 342. On the same count and under the same terms, as for `Br.CN1[C@@H]2CC[C@H]1C[C@@H](OC(=O)C(O)c1ccccc1)C2` (stereo partly drawn) [Homatropine hydrobromide (R,S)], the figure is 332; as for `CN1CCCN(C(c2ccccc2)c2ccc(Cl)cc2)CC1.Cl.Cl` (stereo not drawn) [Homochlorcyclizine dihydrochloride], 343.

With `O=P1(NCCCl)OCCCN1CCCl` (stereo not drawn) [Ifosfamide], the ThS net change is 374. The same measure, in the same setting: with `CC(=O)N(CC(O)CN(C(C)=O)c1c(I)c(C(=O)NCC(O)CO)c(I)c(C(=O)NCC(O)CO)c1I)c1c(I)c(C(=O)NCC(O)CO)c(I)c(C(=O)NCC(O)CO)c1I` (stereo not drawn) [Iodixanol] the figure was 338.

Still in this experiment, the particulars now being: p-tau aggregation modulator screen of the compound library, ThS fluorescence net change.
`N=C(N)NC(=O)Cc1c(Cl)cccc1Cl` [Guanfacine hydrochloride] came in with a ThS net change of 417. Turning to `CC[C@H](c1ccc(O)cc1)[C@@H](CC)c1ccc(O)cc1` [Hexestrol], the ThS net change came to 435. On the same count and under the same terms, as for `NCCc1c[nH]cn1` [Histamine dihydrochloride], the figure is 438; as for `NS(=O)(=O)c1cc2c(cc1C(F)(F)F)NCNS2(=O)=O` [Hydroflumethiazide], 425. Same read-out and setting: as for `CC(C)C(=O)c1c(C(C)C)nn2ccccc12` [Ibudilast], the figure is 444. Turning to `CC(C)Cn1cnc2c(N)nc3ccccc3c21` [Imiquimod], the ThS net change came to 439. `O=C(CCCCC(=O)Nc1c(I)cc(I)c(C(=O)O)c1I)Nc1c(I)cc(I)c(C(=O)O)c1I` [Iodipamide] gave a ThS net change of 421.

The molecule `CCC(Cc1c(I)cc(I)c(N)c1I)C(=O)O` (stereo not drawn) [Iopanoic acid] displayed a ThS net change of 464. The same measure, in the same setting: with `CNC(=O)c1c(I)c(C(=O)NCC(=O)Nc2c(I)c(C(=O)O)c(I)c(C(=O)NCCO)c2I)c(I)c(N(C)C(C)=O)c1I` [Ioxaglic acid] the figure was 442. Same read-out and setting: as for `CC(C)Oc1ccc2c(=O)c(-c3ccccc3)coc2c1` [Ipriflavone], the figure is 429. The same measure, in the same setting: as for `CCCCC1=NC2(CCCC2)C(=O)N1Cc1ccc(-c2ccccc2-c2nnn[nH]2)cc1` [Irbesartan], the figure is 454. In turn, `CNC(C)CCC=C(C)C.CNC(C)CCC=C(C)C.O=C(O)C(O)C(O)C(O)C(O)C(=O)O` (stereo not drawn) [Isometheptene mucate] registered a ThS net change of 481.
